{"source": "patent US20250020650A1", "about": "“METHOD OF PREDICTING A PATIENT'S BENEFIT FROM THERAPY WITH AN IMMUNE CHECKPOINT INHIBITOR” (EBERHARD KARLS UNIVERSITAET TUEBINGEN MEDIZINISCHE FAKULTAET, priority 2021, published 2025)", "key": {"[1]": {"tested_on": "protein translation in platelets", "assay": "PD-L1 on cycloheximide pre-treated platelets after co-incubation with PD-L1-GFP transfected A549 cells", "assay_type": "cell-based, human", "conditions": "platelets pre-treated with 100 μM cycloheximide", "protocol": "Tumor cells were coated with platelets as described previously with slight modifications. Briefly summarized, PRP was obtained from fresh whole blood by centrifugation for 20 minutes at 120 g. Platelets were washed twice with citrate wash buffer (128 mmol/L NaCl, 11 mmol/L glucose, 7.5 mmol/L Na2HPO4, 4.8 mmol/L sodium citrate, 4.3 mmol/L NaH2PO4, 2.4 citric acid, 0.35% bovine serum albumin). In some experiments platelets were pretreated with 5 μg/mL anti-CD42b (clone: AK2), 20 μg/mL anti-integrin β1 (clone: P4C10) and anti-Integrin α5 (clone: JBS5) or corresponding control IgG1 (20 μg/mL) for 30 minutes at 37° C. and 7% CO2. Tumor cells were incubated in platelets at a platelet-tumor cell ratio of […] for 30 minutes at 37° C. and 7% CO2. For immunofluorescence microscopy and FACS analysis cells were fixed in 2% PFA in PBS (pH 7.4) for 10 min at −20° C. prior staining.\nFor overexpression of PD-L1 (CD274) a True-ORF-GFP-tagged expression vector was used (OriGene Technologies, Rockville, MD, USA). Control cells were transfected using a FLAG tag. The FLAG cDNA was generated by PCR and cloned into the PD-L1-GFP vector using AsiSI and MluI restriction sites. Tumor cells were transfected with 2.5 μg DNA (PD-L1-GFP, FLAG-GFP) using Lipofectamine™ 3000, in accordance to the manufacturer's instructions."}, "platelets": {"tested_on": "platelets", "assay": "Controlled platelet stimulation, flow cytometry of pPD-L1", "assay_type": "cell-based, human", "conditions": "10 μM TRAP-6, 2.5 μM ADP or 5 μg/mL collagen for 2 minutes, NSCLC patient platelets", "protocol": "Platelets were obtained from healthy donors (not taking any medication for at least 10 days) and NSCLC patients after informed writing consent. Citrated blood was briefly centrifuged for 20 min at 120×g, the upper fraction was harvested as platelet-rich plasma (PRP). Platelets were washed twice with citrate wash buffer (128 mmol/L NaCl, 11 mmol/L glucose, 7.5 mmol/L Na2HPO4, 4.8 mmol/L sodium citrate, 4.3 mmol/L NaH2PO4, 2.4 citric acid, 0.35% bovine serum albumin, and 50 ng/ml prostaglandin E1 (PGE1)). […] For platelet activation 10 μM of the Thrombin Receptor Activator Peptide 6 (TRAP-6), a protease-activated receptor 1 (PAR1) agonist, 2.5 μM ADP or 5 μg/mL Collagen was added to the platelets for 2 minutes. Platelets were fixed by 2% paraformaldehyde for 10 min and washed twice with PBS containing 1% FCS.\nFlow cytometry was performed using fluorescence-conjugates or specific mAb and their controls followed by species-specific conjugate (Table 2) using a FACS Cantoll flow cytometer […] or a LSRFortessa (Becton Dickinson) from the flow cytometer facility Tuebingen.\nPositive cells in percentage (%) were calculated as follows: Surface expression in percent obtained with the specific antibody—surface expression in percent obtained with isotype control. Platelets were preselected by CD41a^+ and CD62P^− (resting) or CD62P^+ (activated). Data analysis was performed using FlowJo software (v.10). In order to verify the reproducibility of the inventors' flow cytometry system, the inventors performed a Bland-Altman analysis (FIG. 11 f). For immunophenotyping of PBMC subsets of lung cancer patients and healthy control donors were identified by counterstaining with CD3-PECy5 (BD biosciences, San Diego, CA), CD19-APC/Fire750, CD4-Pacific Blue, CD8a-BV605, CD56-PECy7, CD14-BV785, HLA-DR-BV650 (Biolegend, San Diego, CA) and CD16-FITC (Invitrogen). PD-1 and PDL-1 expression as well as activation levels were analyzed using a PD-1-APC or PDL-1-APC and a CD69-PE antibody (BD biosciences), respectively. Isotype controls were obtained from BD biosciences. […]"}, "[2]": {"tested_on": "platelet adhesion to fibronectin", "assay": "Platelet adhesion to fibronectin-coated surface with platelet-blocking agents", "assay_type": "cell-based, human", "conditions": "washed platelets pretreated 30 minutes at 37° C.; 5 μg/mL anti-CD42b, 20 μg/mL anti-integrin β1 and anti-Integrin α5, 1 μg/mL Tirofiban", "protocol": "To prepare fibronectin matrices, plates were coated with a human plasma fibronectin purified protein (R&D, Minneapolis, MN, USA), (concentration 50 μg/cm^2) for 120 min. For blocking of GPIb-IX-V complex, α5β1 or GPIIbIIIa, washed platelets (8×10^7/mL) were pretreated with 5 μg/mL anti-CD42b (clone: AK2), 20 μg/mL anti-integrin β1 (clone: P4C10) and anti-Integrin α5 (clone: JBS5), 1 μg/mL Tirofiban or corresponding control IgG1 (20 μg/mL) for 30 minutes at 37° C. and 7% CO2. After co-incubation with platelets (8×10^7/mL) for 30 min at 37° C. and 7% CO2, non-adherent platelets were removed via three washing steps using PBS. After removal of non-adherent platelets cells were fixed in 2% PFA in PBS (pH 7.4) for 10 min at −20° C. Platelet adhesion to fibronectin fibrils was evaluated by calculating surface coverage area and platelet count/FoV and from microscopic images using an ImageJ script (v. 1.52)."}, "PD-L1 on platelets [3]": {"biological_target": "T1, PD-L1 on platelets (Homo sapiens, UniProt Q9NZQ7)", "T1 construct": "PD-L1 positive platelets from NSCLC patients were pre-treated with the anti-PD-L1 mAB Atezolizumab; endogenous in cells; host or cells: platelets from the peripheral blood of NSCLC patients", "T1 sequence (Q9NZQ7 19-290)": "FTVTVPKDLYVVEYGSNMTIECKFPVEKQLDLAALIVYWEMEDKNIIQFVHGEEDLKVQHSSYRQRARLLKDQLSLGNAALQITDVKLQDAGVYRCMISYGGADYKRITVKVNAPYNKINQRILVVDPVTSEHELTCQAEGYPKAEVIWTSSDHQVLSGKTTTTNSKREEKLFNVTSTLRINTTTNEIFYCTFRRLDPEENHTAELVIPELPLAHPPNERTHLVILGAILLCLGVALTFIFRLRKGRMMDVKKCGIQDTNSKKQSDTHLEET", "assay": "IFNγ ELISPOT and cytokine staining of EBV/CMV peptide-stimulated T cells co-incubated with PD-L1 positive platelets", "assay_type": "cell-based", "conditions": "platelets from NSCLC patients pre-treated 30 min, EBV/CMV-derived peptides, IFNγ and TNFα", "protocol": "Freshly thawed (ex vivo) PBMCs from healthy donors were analyzed by enzyme-linked immunospot (ELISPOT) assay in duplicates. Interferon γ (IFNγ) ELISPOT assays in the inventors' study were performed as described previously. In brief, 96-well nitrocellulose plates (Millipore) were coated with 1 mg/mL anti-IFNγ mAb (Mabtech) and incubated overnight at 4° C. In a next step, plates were blocked with human serum (10%) for 2 hours at 37° C. PBMCs (2.5×10^5 cells per well) were pulsed with an EBV/CMV epitope mix containing the frequently recognized peptides BRLF109-117 […] (SEQ ID NO: 11) (A*02) peptide and CMV pp65 (A*02) peptide NLVPMVATV (SEQ ID NO: 12) and incubated with or without platelets (ratio 1:50) for 24 hours. Phytohemagglutinin was used as positive control. HLA-A*02 (KLFEKVKEV (SEQ ID NO: 13))- and B*07 (KPSEKIQVL (SEQ ID NO: 14))-restricted control peptides derived from benign tissues (HV-exclusive HLA ligands) served as negative control. […] Readout was performed according to the manufacturer's instructions. Spots were counted using an ImmunoSpot S5 analyzer (CTL).\nPeptide-specific T cells were further analyzed by intracellular cytokine and cell surface marker staining. […] Viable cells were determined using Aqua live/dead (1:400 dilution, Invitrogen). Samples were analyzed on a FACS Canto II cytometer (BD) and evaluated using FlowJo software v. […]"}, "PD-L1 on platelets [4]": {"biological_target": "T1, PD-L1 on platelets", "assay": "NY-ESO-1 specific CD4+ TEM co-incubated with PD-L1 positive platelets (IFNγ and TNFα)", "assay_type": "cell-based", "conditions": "pPD-L1 positive platelets pre-treated with Atezolizumab 100 μg/mL for 30 min, NY-ESO-1 peptides", "protocol": "The generation of NY-ESO-1-specific T cells was performed using as described previously. In brief, PBMCs from a healthy donor (1×10^7/mL) were stimulated using pools of NY-ESO-1 overlapping peptides (1 μg/mL). The NY-ESO-1 overlapping peptide pool of 15 amino acid length (11 amino acid overlap) was purchased via Miltenyi Biotec. The cells were cultured in RPMI 1640 containing 10% human AB-serum and 1% L-glutamin in the presence of 10 U/mL recombinant IL-2 and 10 ng/ml II-7. Culture medium was replaced every third day. After a pre-sensitization period of 7-14 days, NY-ESO-1 specific, IFNγ^+ T cells were enriched after re-stimulation with NY-ESO-1 peptide pool for 6 h using CliniMACS® (Miltenyi Biotec) technique as reported previously. After enrichment, NY-ESO-1 specific T cells were expanded for 14 days in the presence of IL-7 (10 ng/ml), IL-15 (10 ng/mL) and IL-2 (50 U/mL). T cell specificity was analyzed via intracellular IFNγ staining as stated above. For further characterization of the T-cells the differentiation markers anti-CD45RO, mouse (1:200, clone: HI100), anti-CD62L, mouse (1:400, clone: DREG-56), anti-CD28, mouse (1:200, clone: CD28.2) and anti-CD27, mouse (1:200, clone: M-T271) were co-analyzed by flow cytometry. […] NY-ESO-1 specific T cell activity was determined by intracellular TNFα and IFNγ quantified via flow cytometry as described above."}}}
{"molecule": "C[C@@H]1C[C@@H]([C@H](O)CC2CC(=O)NC(=O)C2)C(=O)[C@@H](C)C1", "note": "[cycloheximide]", "values": [{"measurement": "PD-L1-GFP expression in platelets", "setting": "[1]", "result": "did not result in a reduction"}]}
{"molecule": "Nc1ncnc2c1ncn2[C@@H]1O[C@H](COP(=O)(O)OP(=O)(O)O)[C@@H](O)[C@H]1O", "note": "[ADP]", "values": [{"measurement": "pPD-L1 expression on the platelet surface upon platelet stimulation", "setting": "platelets", "result": "maximized"}]}
{"molecule": "Thrombin Receptor Activator Peptide 6 [TRAP-6]", "values": [{"measurement": "pPD-L1 expression on the platelet surface upon platelet stimulation", "setting": "platelets", "result": "maximized"}]}
{"molecule": "CCCCS(=O)(=O)N[C@@H](Cc1ccc(OCCCCC2CCNCC2)cc1)C(=O)O", "note": "[Tirofiban]", "values": [{"measurement": "platelet adhesion to fibronectin", "setting": "[2]", "result": "only marginally reduced"}]}
{"molecule": "collagen", "values": [{"measurement": "pPD-L1 expression on the platelet surface upon platelet stimulation", "setting": "platelets", "result": "maximized"}]}
{"molecule": "Atezolizumab", "values": [{"measurement": "T cell inhibitory effect of PD-L1 expressing platelets", "setting": "PD-L1 on platelets [3]", "result": "abolished"}, {"measurement": "T cell (CD4+ TEM) activity, IFNγ and TNFα release", "setting": "PD-L1 on platelets [4]", "result": "restored"}]}
